Measured values reported in patent US12054451B1, “Water soluble platinum (II) amino acid schiff base as an antitumor drug” (KING FAISAL UNIVERSITY, priority 2024, dated 2024).

System: HepG-2 (Hepatocellular carcinoma)
Assay: SRB (sulforhodamine-B-stain) anticancer assay, HepG-2
Format: cell-based
Conditions: Homo sapiens, HepG2, HepG-2 cells, 48 hours at 37° C., absorbance 564 nm
Experimental: Investigation for the bio-reactivity of PtL, as an antitumor candidate, was achieved versus well documented human cancer cell lines, as three cancers entitled HepG2, MCF-7, and HCT-116, using the simplest tool SRB (sulforhodamine-B-stain). In particular, the most popular anticancer referenced drug (vinblastine) was used in the anticancer assay (the inhibited action of the cancer cells) to compare its bio-reactivity versus that one of PtL. The antitumor reactivity of PtL was evaluated by IC50 concentrations (half effected concentration in μM) for inhibiting the growth of the tumor and normal cell lines of human in which IC50 concentrations were obtained from Eq. 1, below.
With HepG-2 (Hepatocellular carcinoma), HCT-116 (colon carcinoma), and MCF7 (breast adenocarcinoma), as human cancer cell lines, the antitumor potential of PtL was studied against their growth by applying a spectrometric tool. Using SRB (sulforhodamine-B-stain) was essential in the spectrometric studies at a specific wavelength (564 nm, the optimized absorption wavelength). Recording the corresponded absorbance (A) at 564 nm was accomplished using a UV/Vis. spectrophotometer, UV-1800 mode Shimadzu with a mono-cell holder. […]

- IC50: 7.5 ± 0.1 µM
SMILES: CC[C@]1(O)C[C@@H]2CN(CCc3c([nH]c4ccccc34)[C@@](C(=O)OC)(c3cc4c(cc3OC)N(C)[C@H]3[C@@](O)(C(=O)OC)[C@H](OC(C)=O)[C@]5(CC)C=CCN6CC[C@]43[C@@H]65)C2)C1 [Vinblastine, vinblastine]
